Reference: patent US10183009B2, “Therapeutic compounds and uses thereof” (GENENTECH, INC., priority 2014, dated 2019)

target: BRD9 (Homo sapiens (Human), UniProt Q9H8M2); test: BRD9 AlphaLisa Binding Assay; conditions: not given
Experimental: After 20 minutes incubation at room temperature AlphaLisa Streptavidin Acceptor Beads (Perkin-A[…]) and AlphaLisa Nickel donor beads (Perkin AS 10 ID) were added to a final concentration of 15 ug/mL each.

Chain of BRD9 (Q9H8M2 134-239 limits assumed): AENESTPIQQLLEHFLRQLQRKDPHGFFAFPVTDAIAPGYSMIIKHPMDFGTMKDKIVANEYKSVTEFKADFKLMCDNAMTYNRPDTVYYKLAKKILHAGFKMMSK

`C/C=C/Cn1cc(-c2ccc(C(=O)N3CCOCC3)c(Cl)c2)c2cc[nH]c2c1=O` [Example 51, 6-[(E)-but-2-enyl]-4-[3-chloro-4-(morpholine-4-carbonyl)phenyl]-1H-pyrrolo[2,3-c]pyridin-7-one] and `C/C=C/Cn1cc(-c2ccc(C(=O)N3CCN(C)CC3)c(Cl)c2)c2cc(C)[nH]c2c1=O` [Example 99, 6-[(E)-but-2-enyl]-4-[3-chloro-4-(4-methylpiperazine-1-carbonyl)phenyl]-2-methyl-1H-pyrrolo[2,3-c]pyridin-7-one] are within 1.5-fold of each other in IC50: 13 nM for the first, 9 nM for the second.

`C/C=C/Cn1cc(-c2cc(C(=O)NCC(C)C)ccc2OC)c2cc[nH]c2c1=O` [Example 70, 3-[6-[(E)-but-2-enyl]-7-oxo-1H-pyrrolo[2,3-c]pyridin-4-yl]-N-isobutyl-4-methoxy-benzamide] and `C/C=C/Cn1cc(-c2cc(C(=O)NCCC)ccc2OC)c2cc[nH]c2c1=O` [Example 74, 3-[6-[(E)-but-2-enyl]-7-oxo-1H-pyrrolo[2,3-c]pyridin-4-yl]-4-methoxy-N-propyl-benzamide] are within 1.5-fold of each other in IC50: 28 nM for the first, 27 nM for the second.

First: C/C=C/Cn1cc(-c2cc(C(=O)N3CCCC3)ccc2OC)c2cc[nH]c2c1=O [Example 68, 6-[(E)-but-2-enyl]-4-[2-methoxy-5-(pyrrolidine-1-carbonyl)phenyl]-1H-pyrrolo[2,3-c]pyridin-7-one]
Second: C/C=C/Cn1cc(-c2cc(C(=O)NCCN(C)C)ccc2OC)c2cc[nH]c2c1=O [Example 72, 3-[6-[(E)-but-2-enyl]-7-oxo-1H-pyrrolo[2,3-c]pyridin-4-yl]-N-[2-(dimethylamino)ethyl]-4-methoxy-benzamide]
The IC50 of the first is 1.7-fold higher: 39 nM for the first, 23 nM for the second.

`C/C=C/Cn1cc(-c2ccc(C(=O)NC)cc2)c2cc[nH]c2c1=O` [Example 24, 4-[6-[(E)-but-2-enyl]-7-oxo-1H-pyrrolo[2,3-c]pyridin-4-yl]-N-methyl-benzamide] and `C/C=C/Cn1cc(-c2cc(Cl)c(C(=O)N3CCOCC3)cn2)c2cc(C)[nH]c2c1=O` [Example 104, 6-[(E)-but-2-enyl]-4-[4-chloro-5-(morpholine-4-carbonyl)-2-pyridyl]-2-methyl-1H-pyrrolo[2,3-c]pyridin-7-one] are within 1.5-fold of each other in IC50: 29 nM for the first, 22 nM for the second.

target: BRD4(BD1) (Homo sapiens (Human), UniProt O60885); test: BRD4 AlphaLisa Binding Assay; conditions: not given

Going from `C/C=C/Cn1cc(-c2cccc(C(=O)NC3CC3)c2)c2cc[nH]c2c1=O` [Example 26, 3-[6-[(E)-but-2-enyl]-7-oxo-1H-pyrrolo[2,3-c]pyridin-4-yl]-N-cyclopropyl-benzamide] to `C/C=C/Cn1cc(-c2ccc(C(=O)NC3CC3)cc2)c2cc[nH]c2c1=O` [Example 28, 4-[6-[(E)-but-2-enyl]-7-oxo-1H-pyrrolo[2,3-c]pyridin-4-yl]-N-cyclopropyl-benzamide], the IC50 falls from 830 nM to 510 nM (1.6-fold). The second is the more potent here.

Going from `C/C=C/Cn1cc(-c2cc(C(=O)NC3CCOC3)ccc2OC)c2cc[nH]c2c1=O` (stereo not shown) [Example 65, 3-[6-[(E)-but-2-enyl]-7-oxo-1H-pyrrolo[2,3-c]pyridin-4-yl]-4-methoxy-N-tetrahydrofuran-3-yl-benzamide] to `C/C=C/Cn1cc(-c2cc(C(=O)NC3CC3)ccc2OC)c2cc[nH]c2c1=O` [Example 63, 3-[6-[(E)-but-2-enyl]-7-oxo-1H-pyrrolo[2,3-c]pyridin-4-yl]-N-cyclopropyl-4-methoxy-benzamide], the IC50 falls from 1600 nM to 980 nM (1.6-fold).

Compared with `CCCCCn1cc(-c2cccc(C(=O)N(C)C)c2)c2cc[nH]c2c1=O` [Example 13, N,N-dimethyl-3-(7-oxo-6-pentyl-1H-pyrrolo[2,3-c]pyridin-4-yl)benzamide], `CN(C)C(=O)c1cccc(-c2cn(CCC3CC3)c(=O)c3[nH]ccc23)c1` [Example 4, 3-[6-(2-cyclopropylethyl)-7-oxo-1H-pyrrolo[2,3-c]pyridin-4-yl]-N,N-dimethyl-benzamide] is 2.1-fold lower in IC50: 4500 nM for the first, 2100 nM for the second. The second is the more potent here.

Compared with `C/C=C/Cn1cc(-c2cccc(C(N)=O)c2F)c2cc[nH]c2c1=O` [Example 39, 3-[6-[(E)-but-2-enyl]-7-oxo-1H-pyrrolo[2,3-c]pyridin-4-yl]-2-fluoro-benzamide], `C/C=C/Cn1cc(-c2cc(C(N)=O)ccc2F)c2cc[nH]c2c1=O` [Example 40, 3-[6-[(E)-but-2-enyl]-7-oxo-1H-pyrrolo[2,3-c]pyridin-4-yl]-4-fluoro-benzamide] is 1.5-fold higher in IC50: 1200 nM for the first, 1800 nM for the second. The first is the more potent here.

First: C/C=C/Cn1cc(-c2cc(C(=O)NCC(F)F)ccc2OC)c2cc[nH]c2c1=O [Example 69, 3-[6-[(E)-but-2-enyl]-7-oxo-1H-pyrrolo[2,3-c]pyridin-4-yl]-N-(2,2-difluoroethyl)-4-methoxy-benzamide]
Second: C/C=C/Cn1cc(-c2cc(C(=O)NCC3CC3)ccc2OC)c2cc[nH]c2c1=O [Example 76, 3-[6-[(E)-but-2-enyl]-7-oxo-1H-pyrrolo[2,3-c]pyridin-4-yl]-N-(cyclopropylmethyl)-4-methoxy-benzamide]
The IC50 of the first is 3.8-fold lower: 320 nM for the first, 1200 nM for the second. The first is the more potent here.

`C/C=C/Cn1cc(-c2ccc(C(C)C)cc2)c2cc[nH]c2c1=O` [Example 31, 6-[(E)-but-2-enyl]-4-(4-isopropylphenyl)-1H-pyrrolo[2,3-c]pyridin-7-one] and `C/C=C/Cn1cc(-c2ccc(C(C)(C)C)cc2)c2cc[nH]c2c1=O` [Example 23, 6-[(E)-but-2-enyl]-4-(4-tert-butylphenyl)-1H-pyrrolo[2,3-c]pyridin-7-one] are within 1.5-fold of each other in IC50: 1600 nM for the first, 2100 nM for the second.

Compared with `CN(C)C(=O)c1cccc(-c2cn(CC3CCC3)c(=O)c3[nH]ccc23)c1` [Example 11, 3-[6-(cyclobutylmethyl)-7-oxo-1H-pyrrolo[2,3-c]pyridin-4-yl]-N,N-dimethyl-benzamide], `CN(C)C(=O)c1cccc(-c2cn(CC3CCCC3)c(=O)c3[nH]ccc23)c1` [Example 5, 3-[6-(cyclopentylmethyl)-7-oxo-1H-pyrrolo[2,3-c]pyridin-4-yl]-N,N-dimethyl-benzamide] is 1.8-fold higher in IC50: 3600 nM for the first, 6400 nM for the second.

Going from `CC(C)Cn1cc(-c2cccc(C(=O)N(C)C)c2)c2cc[nH]c2c1=O` [Example 16, 3-(6-isobutyl-7-oxo-1H-pyrrolo[2,3-c]pyridin-4-yl)-N,N-dimethyl-benzamide] to `CC/C=C/Cn1cc(-c2cccc(C(=O)N(C)C)c2)c2cc[nH]c2c1=O` [Example 7, N,N-dimethyl-3-[7-oxo-6-[(E)-pent-2-enyl]-1H-pyrrolo[2,3-c]pyridin-4-yl]benzamide], the IC50 falls from 8000 nM to 2700 nM (3-fold). The second is the more potent here.

`CN(C)C(=O)c1cccc(-c2cn(CC3CCCCC3)c(=O)c3[nH]ccc23)c1` [Example 9, 3-[6-(cyclohexylmethyl)-7-oxo-1H-pyrrolo[2,3-c]pyridin-4-yl]-N,N-dimethyl-benzamide] and `CN(C)C(=O)c1cccc(-c2cn(CCC3CCCCC3)c(=O)c3[nH]ccc23)c1` [Example 12, 3-[6-(2-cyclohexylethyl)-7-oxo-1H-pyrrolo[2,3-c]pyridin-4-yl]-N,N-dimethyl-benzamide] are within 1.5-fold of each other in IC50: 15000 nM for the first, 12000 nM for the second.

Going from `CCCCn1cc(-c2cccc(C(=O)N(C)C)c2)c2cc(C)[nH]c2c1=O` [Example 86, 3-(6-butyl-2-methyl-7-oxo-1H-pyrrolo[2,3-c]pyridin-4-yl)-N,N-dimethyl-benzamide] to `C/C=C/Cn1cc(-c2ccc(C(N)=O)c(F)c2)c2cc[nH]c2c1=O` [Example 20, 4-[6-[(E)-but-2-enyl]-7-oxo-1H-pyrrolo[2,3-c]pyridin-4-yl]-2-fluoro-benzamide], the IC50 falls from 2300 nM to 890 nM (2.6-fold). The second is the more potent here.

`C/C=C/Cn1cc(-c2ccc3c(c2)NC(C)CC(=O)N3)c2cc[nH]c2c1=O` (stereo not shown) [Example 84, 7-[6-[(E)-but-2-enyl]-7-oxo-1H-pyrrolo[2,3-c]pyridin-4-yl]-4-methyl-1,3,4,5-tetrahydro-1,5-benzodiazepin-2-one] and `C/C=C/Cn1cc(-c2cc(C(=O)NC3CCC3)ccc2OC)c2cc[nH]c2c1=O` [Example 75, 3-[6-[(E)-but-2-enyl]-7-oxo-1H-pyrrolo[2,3-c]pyridin-4-yl]-N-cyclobutyl-4-methoxy-benzamide] are within 1.5-fold of each other in IC50: 1900 nM for the first, 1300 nM for the second.

target: TAF1-BD2 (Homo sapiens (Human), UniProt P21675); test: TAF1-BD2 TR-FRET Binding Assay; conditions: Assay: TAF-1
Sequence (P21675 1525-1656 limits assumed): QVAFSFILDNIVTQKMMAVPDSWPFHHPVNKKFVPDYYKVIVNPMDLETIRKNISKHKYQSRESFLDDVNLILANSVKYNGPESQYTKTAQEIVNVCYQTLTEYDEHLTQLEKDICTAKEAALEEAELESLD
Experimental: Specifically, in a 384 well ProxiPlate TAF1-BD2 (6 nM final) was combined with biotin-ligand (50 nM final) in 50 mM HEPES (pH 7.5), 50 mM NaCl, 1 mM TCEP, 0.01% (w/v) BSA, and 0.008% (w/v) Brij-35 either in the presence of DMSO (final 0.2% DMSO) or compound dilution series in DMSO. After 10 minutes incubation at room temperature, a mixture Eu-W1024 Anti-6×His antibody (Perkin Elmer AD0110) and SureLight™ Allophycocyanin-Streptavidin (APC-SA, Perkin Elmer CR130-100) were added to a final concentrations of 0.2 nMolar antibody and 25 nMolar APC-SA, respectively. After twenty minutes of equilibration, the plates were read on an Envision instrument and IC50s calculated using a four parameter non-linear curve fit.

Compared with `C/C=C/Cn1cc(-c2cc(C(=O)N3CCC3)ccc2OC)c2cc[nH]c2c1=O` [Example 71, 4-[5-(azetidine-1-carbonyl)-2-methoxy-phenyl]-6-[(E)-but-2-enyl]-1H-pyrrolo[2,3-c]pyridin-7-one], `C/C=C/Cn1cc(-c2cccc(C(=O)NC)c2)c2cc[nH]c2c1=O` [Example 25, 3-[6-[(E)-but-2-enyl]-7-oxo-1H-pyrrolo[2,3-c]pyridin-4-yl]-N-methyl-benzamide] is 2.8-fold lower in IC50: 1800 nM for the first, 640 nM for the second. The second is the more potent here.

`CC(C)=CCn1cc(-c2cccc(C(=O)N(C)C)c2)c2cc[nH]c2c1=O` [Example 3, N,N-dimethyl-3-[6-(3-methylbut-2-enyl)-7-oxo-1H-pyrrolo[2,3-c]pyridin-4-yl]benzamide] and `CN(C)C(=O)c1cccc(-c2cn(CC3CC3)c(=O)c3[nH]ccc23)c1` [Example 17, 3-[6-(cyclopropylmethyl)-7-oxo-1H-pyrrolo[2,3-c]pyridin-4-yl]-N,N-dimethyl-benzamide] are within 1.5-fold of each other in IC50: 5200 nM for the first, 5600 nM for the second.

First: Cc1cc2c(-c3cccc(C(=O)N(C)C)c3)cn(CCC3CC3)c(=O)c2[nH]1 [Example 85, 3-[6-(2-cyclopropylethyl)-2-methyl-7-oxo-1H-pyrrolo[2,3-c]pyridin-4-yl]-N,N-dimethyl-benzamide]
Second: C/C=C/Cn1cc(-c2ccc(C(=O)N(C)C)c(Cl)c2)c2cc[nH]c2c1=O [Example 43, 4-[6-[(E)-but-2-enyl]-7-oxo-1H-pyrrolo[2,3-c]pyridin-4-yl]-2-chloro-N,N-dimethyl-benzamide]
The IC50 of the first is 4.2-fold lower: 480 nM for the first, 2000 nM for the second.

Work on `C/C=C/Cn1cc(-c2ccc(CO)cc2)c2cc[nH]c2c1=O` [Example 29, 6-[(E)-but-2-enyl]-4-[4-(hydroxymethyl)phenyl]-1H-pyrrolo[2,3-c]pyridin-7-one] yielded an IC50 of 4500 nM.
